Measured values from publication PMC9323797, “4-Substituted Thieno[3,2-d]pyrimidines as Dual-Stage Antiplasmodial Derivatives” (Pharmaceuticals, 2022).
Read-outs that look alike come from different tables or passages of the source.

Assays:
P. falciparum K1 [1] = assay: Blood-stage antiplasmodial evaluation (SYBR Green I fluorescence, 72 h); assay type: cell-based, Plasmodium falciparum; details: asexual blood stages, drug-resistant K1 strain, 72 h incubation, mean ± SD of three independent experiments; for EC50: read-out: P. falciparum K1 EC50
Protocol: A K1 culture-adapted P. falciparum strain resistant to chloroquine, pyrimethamine, and proguanil was used in an in vitro culture. It was maintained in a continuous culture, as described previously by Trager and Jensen. Cultures were maintained in fresh A+ human erythrocytes at 2.5% hematocrit in a complete medium (RPMI 1640 with 25 mM HEPES, 25 mM NaHCO3, and 10% of A+ human serum) at 37 °C under a reduced O2 atmosphere (gas mixture: 10% O2, 5% CO2, and 85% N2). Parasitemia was maintained daily between 1 and 3%. The P. falciparum drug susceptibility test was carried out by comparing quantities of DNA in treated and control cultures of parasite in human erythrocytes, according to a SYBR Green I fluorescence-based method using a 96-well fluorescence plate reader. Compounds, previously dissolved in DMSO (final concentration less than 0.5% v/v), were incubated in a total assay volume of 200 μL (RPMI, 2% hematocrit and 0.4% parasitemia) for 72 h in a humidified atmosphere (10% O2 and 5% CO2) at 37 °C, in 96-well flat bottom plates. Duplicate assays were performed for each sample. After incubation, plates were frozen at […] for 24 h. Then, the frozen plates were thawed for 1 h at 37 °C. A total of 15 μL of each sample was transferred to 96-well flat-bottom non-sterile black plates (Greiner Bio-One, Kremsmünster, Austria) already containing 15 μL of the SYBR Green I lysis buffer (2X SYBR Green I, 20 mM Tris base pH 7.5, 20 mM EDTA, 0.008% w/v saponin, 0.08% w/v Triton X-100). Negative control treated by solvents (DMSO or H2O) and positive controls (chloroquine) were added to each set of experiments. Plates were incubated for 15 min at 37 °C and then read on a TECAN Infinite F-200 spectrophotometer with excitation and emission wavelengths at 485 and 535 nm, respectively. The concentrations of compounds required to induce a 50% decrease in parasite growth (EC50 K1) were calculated from three independent experiments.

[2] = Cytotoxic evaluation on HepG2 cell line (MTT, 72 h); assay type: cell-based, human; details: HepG2 cells (hepatocarcinoma cell line, ATCC HB-8065); human hepatoma cell line HepG2, MTT, 72 h, mean ± SD of three independent experiments
Protocol: (§1) The HepG2 cell line (hepatocarcinoma cell line purchased from ATCC, ref HB-8065) was maintained at 37 °C, 5% CO2, with 90% humidity in MEM supplemented with 10% fetal bovine serum, 1% L-glutamine (200 mM), penicillin (100 U/mL), and streptomycin (100 μg/mL) (complete MEM medium). The evaluation of the cytotoxicity of the tested molecules was performed according to the method of Mosmann, with slight modifications. Briefly, 5.103 cells in 100 μL of the complete medium were inoculated into each well of a 96-well plate and incubated at 37 °C in a humidified 5% CO2. After 24 h incubation, 100 μL of medium with various product concentrations dissolved in DMSO (final concentration less than 0.5% v/v) was added and the plates were incubated for 72 h at 37 °C. Triplicate assays were performed for each sample. Each plate well was then microscope-examined for detecting possible precipitate formation before the medium was aspirated from the wells. A total of 100 μL of MTT (3-(4,5-dimethyl-2-thiazolyl)-2,5-diphenyl-2H-tetrazolium bromide) solution (0.5 mg/mL in medium without FCS) was then added to each well. Cells were incubated for 2 h at 37 °C. After this time, the MTT solution was removed and DMSO (100 μL) was added to dissolve the resulting blue formazan crystals. Plates were shaken vigorously (700 rpm) for 10 min. The absorbance was measured at 570 nm, with 630 nm as a reference wavelength using a TECAN Infinite F-200 Microplate Reader. DMSO was used as a blank and doxorubicin (purchased from Sigma Aldrich, St. Louis, MO, USA) was used as a positive control. Cell viability was calculated as a percentage of control (cells incubated without compound). The 50% cytotoxic concentration (CC50) was determined from the dose–response curve by using the TableCurve software 2D v.5.0. CC50 values represent the mean value calculated from three independent experiments.

[3] = Cytotoxicity on primary simian hepatocytes (DAPI count of host cell nuclei); assay type: cell-based, Macaca fascicularis; details: Macaca fascicularis, count of total cell nuclei, mean ± SD of three independent experiments
Protocol: (§2) Primary simian hepatocytes were isolated from liver segments collected from healthy Macaca fascicularis from CEA, Fontenay aux Roses, France. All hepatocytes were obtained using collagenase perfusion, as previously described, and were immediately cryopreserved. One day before infection, the cryopreserved hepatocytes were thawed at 37 °C and were seeded into collagen-coated (5 µg/cm^2 rat tail collagen I, Invitrogen, Carlsbad, CA, USA) 96-well plate, at a density of 80,000 cells per well. They were cultured at 37 °C in 5% CO2 in William’s E medium (Gibco, Life Technologies, Saint Aubin, France) supplemented with 10% of Fetal Bovine Serum FCIII, 5 × 10^–5 M hydrocortisone hemisuccinate (Serb Laboratories, Paris, France), 5 μg per ml bovine insulin (Sigma Aldrich, St. Louis, MO, USA), 2 mM L-glutamine, and 0.02 U per ml-0.02 μg per ml penicillin-streptomycin (Life Technologies) until infection with sporozoites.
(§3) Sporozoites of P. berghei were re-suspended in the above complete medium used for the hepatocytes culture. Simian hepatocytes were inoculated in 50 μL of complete media with 20,000 P. berghei-sporozoites/well in 96-well plates. The infected culture plates were centrifuged for 10 min at 900× g to allow fast parasite sedimentation onto the target cells and were further incubated with the serial dilution of drugs that were prepared in advance. After 3 h of incubation, cultures were washed and further incubated in a fresh medium containing the appropriate drug concentration, which were changed every 24 h during the study period. Cultured hepatocytes were fixed using 4% paraformaldehyde (PFA) for 15 min at room temperature. Host cell and parasite nuclei were labelled with 4′,6-diamidino-2-phenylindole (DAPI). Upon fixation and immunostaining, cell culture plates were analyzed in order to determine the number and size of the parasites using a Cell Insight High Content Screening platform equipped with the Studio HCS software (Thermo Fisher Scientific, Waltham, MA, USA). The parasite size reduction was calculated on the average object area using the total surface area of each selected object (μm^2). To assess the cell toxicity of drugs for hepatic cultures, fixed plates were further scanned for the DAPI signal representing host nuclei. The analysis was based on counting of total cell nuclei. GraphPad Prism 7 statistical software (GraphPad. Software, San Diego, CA, USA) was used for data analysis and graphing. All values were expressed as means and standard deviations (SD).

P. berghei = assay: Hepatic-stage antiplasmodial evaluation (PbGFP sporozoites in primary simian hepatocytes, high content imaging); assay type: cell-based; details: mean ± SD of three independent experiments
Source text: P. berghei sporozoites constitutively expressing green fluorescent protein (PbGFP, ANKA strain) were obtained by the dissection of salivary glands from infected Anopheles stephensi mosquitoes bred and infected in the insectary facilities of UMR-S 1135 (CIMI, Paris, France). Infected salivary glands were removed by hand dissection, crushed in a potter, and filtered through a 40 μm filter for sporozoite isolation (Cell Strainer, BD BioSciences, San Jose, CA, USA). The sporozoites were counted using a disposable plastic microscope slide (KOVA).
as §2, §3

HepG2 [4] = test system: HepG2; design: method as in PMID 25791675; details: cited from earlier work
P. falciparum K1 [5] = test system: P. falciparum K1; design: method as in PMID 25791675; details: asexual blood stages, K1 strain; cited from earlier work
[6] = test system: Primary Simian Hepatocytes; assay: Cytotoxicity on primary simian hepatocytes (DAPI count of host cell nuclei); assay type: cell-based, Macaca fascicularis; details: count of total cell nuclei, mean ± SD of three independent experiments
Protocol: as §2, §3

HepG2 [7] = assay: Cytotoxic evaluation on HepG2 cell line (MTT, 72 h); assay type: cell-based, human; details: toxicity on HepG2 versus EC50 against the erythrocytic stage of P. falciparum
Protocol: as §1

[8] = Plasmodium falciparum, K1, 72 h

Compound | EC50 (P. falciparum K1 [1]; [8]) [µM] | P. falciparum K1 EC50 (P. falciparum K1 [1]) | CC50 at 72 h [2] [µM] | CC50 [3] [µM] | EC50 (P. berghei; Plasmodium berghei, Hepatocyte) [µM] | EC50 (P. berghei) [µM] | EC50 (P. falciparum K1 [1]) [µM] | P. berghei EC50 (P. berghei) | CC50 (HepG2 [4]) [µM] | EC50 (P. falciparum K1 [5]) [µM] | Primary Simian Hepatocytes CC50 [6] | selective index (HepG2 [7])
CCCNc1nc(NC(C)(C)C)nc2cc(-c3ccc(C)cc3)sc12 [Compound 10d, N^2-(tert-butyl)-N^4-propyl-6-(p-tolyl)thieno[3,2-d]pyrimidine-2,4-diamine] | 1.1 ± 0.2 | micromolar range | 3.7 ± 0.3 | 22 ± 2.8 | ~5 | 7.1 ± 1.4 |  |  |  |  |  | 
Cc1ccc(-c2cc3nc(NC(C)(C)C)nc(I)c3s2)cc1 [Compound 6, N-(Tert-butyl)-4-iodo-6-(p-tolyl)thieno[3,2-d]pyrimidin-2-amine] |  | submicromolar range | 29 ± 5.5 | > 100 | 26.7 ± 5.6 |  |  |  |  |  |  | 
Cc1ccc(-c2cc3nc(NC(C)(C)C)nc(N)c3s2)cc1 [Compound 10a, N^2-(Tert-butyl)-6-(p-tolyl)thieno[3,2-d]pyrimidine-2,4-diamine] | < 2 | micromolar range | 12.1 ± 4.1 | > 50 | 70.7 ± 9.7 |  | 1.4 ± 0.6 | not active |  |  |  | 
Cc1ccc(-c2cc3nc(NC(C)(C)C)[nH]c(=O)c3s2)cc1 [Compound 1, Gamhepathiopine, reference compound] |  |  |  | > 200 | 24.3 ± 1.6 |  |  |  | 25.6 ± 3.1 | 0.2 ± 0.02 |  | 
COCCNc1nc(NC(C)(C)C)nc2cc(-c3ccc(C)cc3)sc12 [Compound 10g, N^2-(tert-butyl)-N^4-(2-methoxyethyl)-6-(p-tolyl)thieno[3,2-d]pyrimidine-2,4-diamine] | 0.8 ± 0.2 | micromolar range | 3.7 ± 0.9 | 7.8 ± 2.3 | ~5 | 6.3 ± 0.2 |  |  |  |  | cytotoxic | 
Cc1ccc(-c2cc3nc(NC(C)(C)C)nc(NCCCCO)c3s2)cc1 [Compound 10f, 4-((2-(tert-butylamino)-6-(p-tolyl)thieno[3,2-d]pyrimidin-4-yl)amino)butan-1-ol] | 0.7 ± 0.1 | micromolar range | 2.9 ± 1.1 | 17.7 ± 1.9 | ~15 | 14.1 ± 1.9 |  |  |  |  |  | 
Cc1ccc(-c2cc3nc(NC(C)(C)C)nc(Cl)c3s2)cc1 [Compound 5, N-(Tert-butyl)-4-chloro-6-(p-tolyl)thieno[3,2-d]pyrimidin-2-amine] |  | submicromolar range | 16.4 ± 5.4 | > 100 | ~15 | 16.5 ± 8 |  |  |  |  |  | 54.7
CNc1nc(NC(C)(C)C)nc2cc(-c3ccc(C)cc3)sc12 [Compound 10c, N^2-(tert-butyl)-N^4-methyl-6-(p-tolyl)thieno[3,2-d]pyrimidine-2,4-diamine] | 1 ± 0.4 | micromolar range | 3.7 ± 0.6 | 31.5 ± 6.8 | ~5 | 4.6 ± 5.7 |  | most active |  |  |  | 
C[C@H]1c2cccc(O)c2C(=O)C2=C(O)[C@]3(O)C(=O)C(C(N)=O)=C(O)[C@@H](N(C)C)[C@@H]3[C@@H](O)[C@@H]21 [Doxycycline] |  |  |  |  |  |  |  |  |  | 5 |  | 
